Experimental data published in patent US12228572B2, “Enhanced expression of polo-like kinase 3 (PLK3) in human immunodeficiency virus (HIV)-infected cells” (priority 2021, dated 2025).

Target: T1, human PLK3 (Homo sapiens, UniProt Q9H4B4)
T1 construct: expressed in transfected cells
Assay type: cell-based

T1 sequence (Q9H4B4 whole entry): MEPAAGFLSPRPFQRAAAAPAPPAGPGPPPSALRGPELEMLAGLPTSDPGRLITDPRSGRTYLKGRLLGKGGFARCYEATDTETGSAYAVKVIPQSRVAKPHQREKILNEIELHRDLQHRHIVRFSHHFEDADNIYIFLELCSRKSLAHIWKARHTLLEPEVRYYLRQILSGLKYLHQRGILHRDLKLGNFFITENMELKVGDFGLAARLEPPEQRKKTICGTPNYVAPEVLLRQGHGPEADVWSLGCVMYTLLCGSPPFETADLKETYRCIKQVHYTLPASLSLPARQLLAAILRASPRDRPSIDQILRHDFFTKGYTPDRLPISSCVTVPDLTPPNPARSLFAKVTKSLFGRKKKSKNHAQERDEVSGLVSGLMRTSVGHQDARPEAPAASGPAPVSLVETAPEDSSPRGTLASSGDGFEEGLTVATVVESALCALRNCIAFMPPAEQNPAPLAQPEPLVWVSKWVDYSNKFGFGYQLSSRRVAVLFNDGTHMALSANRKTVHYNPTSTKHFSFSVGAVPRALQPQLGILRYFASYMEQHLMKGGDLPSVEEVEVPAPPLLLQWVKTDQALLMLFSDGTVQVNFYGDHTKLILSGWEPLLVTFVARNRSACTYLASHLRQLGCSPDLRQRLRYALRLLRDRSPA

COc1cc2ncn(-c3cc(OCc4ccccc4C(F)(F)F)c(C(N)=O)s3)c2cc1OC [GW843682X]
effect on the anti-HIV-1 ability of human PLK3: can inhibit the anti-HIV-1 ability of human PLK3
expression level of PLK3: not changed
